In PMC5601071 (Frontiers in Pharmacology, 2017):
Like-named read-outs stand apart in the source and are kept apart here. Residues, ends and D or L forms follow the SMILES beside them. *: point of attachment. Stearoyl = CCCCCCCCCCCCCCCCCC(=O)*; Palmitoyl = CCCCCCCCCCCCCCCC(=O)*

Assays:
[1] = target: T1, TREK-1 channel (hTREK-1/HEK cells) (Homo sapiens, UniProt O95069); experiment: TREK-1 current inhibition, whole-cell patch-clamp on hTREK-1/HEK cell line; assay type: cell-based
T1 construct: expressed in transfected cells
T1 sequence (O95069 1-426): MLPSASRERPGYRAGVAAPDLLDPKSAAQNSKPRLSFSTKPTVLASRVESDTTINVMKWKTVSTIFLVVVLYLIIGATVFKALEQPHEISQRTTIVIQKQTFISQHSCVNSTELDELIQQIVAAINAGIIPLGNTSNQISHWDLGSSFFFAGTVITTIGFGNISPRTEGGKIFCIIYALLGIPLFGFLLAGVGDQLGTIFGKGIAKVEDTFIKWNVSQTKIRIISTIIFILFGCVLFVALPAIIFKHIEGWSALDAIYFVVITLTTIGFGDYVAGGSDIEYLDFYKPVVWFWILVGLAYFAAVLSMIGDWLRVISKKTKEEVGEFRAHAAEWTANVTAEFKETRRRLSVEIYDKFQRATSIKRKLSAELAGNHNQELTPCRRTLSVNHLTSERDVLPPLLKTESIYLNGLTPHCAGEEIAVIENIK
Method: The human TREK-1/HEK cell line (Moha ou Maati et al., [2011]) and the native HEK293 cell line were maintained in Dulbecco's Modified Eagle's Medium (DMEM) supplemented with 10% (v/v) heat-inactivated fetal bovine serum, 1% (v/v) penicillin-streptomycin, 1% Glutamax. For the hTREK-1/HEK cells, 0.5 mg/ml G418 were added to the medium.
Cells were incubated in a humidified atmosphere containing 5% CO2. For electrophysiological measurements, cells were plated at a density of 20,000 cells per 35 mm dish.
Cells from the hTREK-1/HEK cell line were seeded at a density of 20,000 cells/35 mm dish. Electrophysiological recordings were performed 24–48 h after plating using the whole-cell configuration of patch-clamp technique. TREK-1 currents (ITREK−1) were recorded using RK400 patch-clamp amplifier (Axon Instrument, USA). They were low-pass filtered at 3 kHz and digitized at 10 kHz using a 12-bit analog-to-digital converter digidata (1322 series, Axon Instrument, USA). ITREK−1amplitudes were expressed as current densities [current amplitude (pA)/membrane capacitance (pF)]. The results were expressed as mean ± SEM (standard error of the mean).
Cells were continuously perfused using an external bath solution containing in mM: 150 NaCl, 5 KCl, 3 MgCl2, 1 CaCl2, and 10 HEPES. The bath solution was initially adjusted to pH 7.4 with NaOH. The intra-pipette solution contained in mM: 155 KCl, 3 MgCl2, 5 EGTA, and 10 HEPES adjusted to pH 7.2 with KOH. In order to measure ITREK−1, a cocktail of potassium channel blockers was added to the bath solution. This cocktail contained: 3 mM 4-AP (4-aminopyridine), 10 mM TEA (tetraethylammonium), 10 μM Glibenclamide, 100 nM Apamin, and 50 nM Charybdotoxin. Data acquisition was carried out using a computer (Dell Pentium) with pClamp software (Axon Instrument, USA). Whole-cell currents were generated by running a pulse or ramp protocol every 5 s from −100 to +60 mV with a holding potential maintained at −80 mV. To evaluate the inhibitory effect on TREK-1 channels of shortened spadin analogs compared with spadin, cells were first activated by 10 μM arachidonic acid (AA). Dose-response curves were realized to compare spadin-analog effects with spadin using Origin 8.6 (Northampton, MA, USA).
Patch-clamp recording data were analyzed using Clampfit (Molecular Devices, USA). I = f(V) curves were obtained from −100 to +60 mV ramp. Data were presented as mean ± SEM.

[2] = In vitro degradation / half-life time in serum; assay type: in vitro ADME, mouse; settings: for time of maximal appearance of degradation peak in serum: spadin incubated with mouse serum, HPLC peaks identified by mass spectroscopy
Method: […] Incubations were stopped by direct acidification (5 μl of 2.5 M HCl), loaded in C-18 sepack cartridges, lyophilized, resuspended in 20% acetonitrile before loading onto HPLC for analysis of PE degradation/stability. Elutions of HPLC products were carried out by means of a 50-min linear gradient of acetonitrile from 20 to 70% at a flow rate of 1 ml/min. The amount of the intact PE for each incubation time was expressed as the percent of the initial amount of spadin.

[3] = target: T1, TREK-1 channel (hTREK-1/HEK cells); settings: ref Mazella et al., 2010, Moha ou Maati et al., 2011, cited from earlier work
Excerpt: Depression is a devastating mental disorder that affects 20% of the population worldwide. Despite their proven efficacy, antidepressants present a delayed onset of action and serious adverse effects. Seven years ago, we described spadin (PE 12-28) as a promising endogenous peptide with antidepressant activity. Spadin specifically blocks the TREK-1 channel. […] In order to improve in vivo spadin stability and bioavailability, we screened spadin analogs and derivatives. From the study of spadin blood deg ... || Depression is one of the most common mood disorders that represents a heavy economic burden in industrialized countries (Smith, [2014]). Severe depression affects 2–5% of US citizens and up to 20% of the population suffer from mild depression (Nestler et al., [2002]; Maletic et al., [2007]; Krishnan and Nestler, [2008]; Kessler et al., [2012]). Depression is a complex syndrome with a variety of causes mostly genetic and environmental (Nestler et al., [2002]).

[4] = mouse serum; settings: 37°C (Figure 1 legend), room temperature, up to 60 min
[5] = HEK293, peptide 100 nM, TREK-1 first activated with 10 μM arachidonic acid (AA), current density at 0 mV, hTREK-1/HEK cells, mean ± SEM, n = cells, read-out: % of TREK-1 inhibition
[6] = HEK293, read-out: % of TREK-1 inhibition

## CC[C@H](C)[C@H](NC(=O)[C@@H]1CCCN1C(=O)CNC(=O)[C@H](CO)NC(=O)[C@H](Cc1c[nH]c2ccccc12)NC(=O)[C@H](CCCNC(=N)N)NC(=O)[C@@H]1CCCN1C(=O)[C@H](CC(C)C)NC(=O)[C@@H]1CCCN1C(=O)[C@H](C)N)C(=O)NCC(=O)N[C@H](C(=O)N[C@@H](CO)C(=O)N[C@@H](Cc1c[nH]c2ccccc12)C(=O)NCC(=O)N[C@@H](CC(C)C)C(=O)O)C(C)C [PE 12-27] (H-APLPRWSGPIGVSWGL-OH)
[1]; [5]
  inhibition at 0.1 µM: 28.4 ± 9.9%
[2]
  time of maximal appearance of degradation peak in serum: 30 min

## CC[C@H](C)[C@H](NC(=O)[C@@H]1CCCN1C(=O)CNC(=O)[C@H](CO)NC(=O)[C@H](Cc1c[nH]c2ccccc12)NC(=O)[C@H](CCCNC(=N)N)NC(=O)[C@@H]1CCCN1C(=O)[C@H](CC(C)C)NC(=O)[C@@H]1CCCN1C(=O)[C@H](C)N)C(=O)NCC(=O)N[C@H](C(=O)N[C@@H](CO)C(=O)N[C@@H](Cc1c[nH]c2ccccc12)C(=O)NCC(=O)N[C@@H](CC(C)C)C(=O)N[C@@H](CCCNC(=N)N)C(=O)O)C(C)C [PE 12-28 (Spadin), reference compound] (H-APLPRWSGPIGVSWGLR-OH)
[1]; [5]
  inhibition at 0.1 µM: 44.4 ± 8.82%
[1]; dose-response curves at 0 mV, hTREK-1/HEK cells, activated by 10 μM AA
  IC50: 40 nM
[2]; mouse serum, 30 min, 37°C (method b20: 10 nmoles in 200 μl serum, room temperature), HPLC
  spadin remaining after incubation with serum: disappearance of almost all spadin
[3]; Moha Ou Maati et al., 2012, read-out: IC50 for TREK-1 block (spadin)
  IC50: 40 to 60 nM

## CC[C@H](C)[C@H](NC(=O)[C@@H]1CCCN1C(=O)CNC(=O)[C@H](CO)NC(=O)[C@H](Cc1c[nH]c2ccccc12)NC(=O)[C@H](CCCNC(=N)N)NC(=O)[C@@H]1CCCN1C(=O)[C@@H](N)CC(C)C)C(=O)NCC(=O)N[C@H](C(=O)N[C@@H](CO)C(=O)N[C@@H](Cc1c[nH]c2ccccc12)C(=O)O)C(C)C [PE 14-25] (H-LPRWSGPIGVSW-OH)
[1]; [5]
  inhibition at 0.1 µM: -14.7 ± 10.6%
[1]; peptide 100 nM after 10 μM AA, n = 8, p = 0.09
  current density measured at 0 mV compared with AA activity alone (100%): 114.7 ± 10.6%
[2]
  time of maximal appearance of degradation peak in serum: 15 min

## CCOC(=O)[C@H](CCCNC(=N)N)NC(=O)[C@H](CC(C)C)NC(=O)CNC(=O)[C@H](Cc1c[nH]c2ccccc12)NC(=O)[C@H](CO)NC(=O)[C@@H](NC(=O)CN)C(C)C [PE 22-28-O-Ethyl] (H-GVSWGLR-OEt)
[1]; [5]
  inhibition at 0.1 µM: 41.4 ± 11.5%

## COC(=O)[C@H](CCCNC(=N)N)NC(=O)[C@H](CC(C)C)NC(=O)CNC(=O)[C@H](Cc1c[nH]c2ccccc12)NC(=O)[C@H](CO)NC(=O)[C@@H](NC(=O)CN)C(C)C [PE 22-28-O-Methyl] (H-GVSWGLR-OMe)
[1]; [5]
  inhibition at 0.1 µM: 43 ± 13.5%

## CC(C)C[C@H](NC(=O)CNC(=O)[C@H](Cc1c[nH]c2ccccc12)NC(=O)[C@H](CO)NC(=O)[C@@H](NC(=O)CN)C(C)C)C(=O)N[C@@H](CCCNC(=N)N)C(=O)O [PE 22-28] (H-GVSWGLR-OH)
[1]; [5]
  inhibition at 0.1 µM: 55.5 ± 4.55%

## CC[C@H](C)[C@H](NC(=O)[C@@H]1CCCN1)C(=O)NCC(=O)N[C@H](C(=O)N[C@@H](CO)C(=O)N[C@@H](Cc1c[nH]c2ccccc12)C(=O)NCC(=O)N[C@@H](CC(C)C)C(=O)N[C@@H](CCCNC(=N)N)C(=O)O)C(C)C [PI-PE 22-28] (H-PIGVSWGLR-OH)
[1]; [5]
  inhibition at 0.1 µM: 46.2 ± 7.57%

## CCCCCCCCCCCCCCCC(=O)NCC(=O)N[C@H](C(=O)N[C@@H](CO)C(=O)N[C@@H](Cc1c[nH]c2ccccc12)C(=O)NCC(=O)N[C@@H](CC(C)C)C(=O)N[C@@H](CCCNC(=N)N)C(=O)O)C(C)C [Palmitoyl-PE 22-28] (Palmitoyl-GVSWGLR-OH)
[1]; [6]
  inhibition at 0.1 µM: 26.7 ± 16.4%

## CCCCCCCCCCCCCCCCCC(=O)NCC(=O)N[C@H](C(=O)N[C@@H](CO)C(=O)N[C@@H](Cc1c[nH]c2ccccc12)C(=O)NCC(=O)N[C@@H](CC(C)C)C(=O)N[C@@H](CCCNC(=N)N)C(=O)O)C(C)C [Stearic acid-PE 22-28] (Stearoyl-GVSWGLR-OH)
[1]; [6]
  inhibition at 0.1 µM: 5.41 ± 5.5%

## CNCCC(Oc1ccc(C(F)(F)F)cc1)c1ccccc1 (centres unmarked) [fluoxetine]
[3]; read-out: IC50 for TREK-1 block (fluoxetine)
  IC50: ~6000 nM

## APLPRWSGPIGVSWGLR
[4]
  fragment found: PE 12-27
